Assay results: patent EP1034782A1, “Treatment of depression by using compounds which elevate the intracellular sodium concentration” (Singer, Andrea, priority 1999, dated 2000)

Columns and labels:
human platelets = test: Measuring [Na^+]i with SBFI/AM fluorescence in platelets; format: cell-based; conditions: for [Na^+]i elevated from basal levels up to: highest concentration investigated: 50 µM hyperforin, 10 µM monensin, platelets, SBFI fluorescence
Method: Solutions: The Na^+-HEPES buffer consisted 10 mM HEPES, 1 mM MgSO4, 5 mM KH2PO4, 5 mM KCI and 5 mM Glucose (4). The pH of this buffer was adjusted to 6.5 with NH3 (for storage of platelets) and to 7.4 for the measurement of fluorescence. The K^+ solution was identical except for complete replacement of sodium by potassium.
Preparation of platelets and loading with SBFI/AM: Venous blood (10 ml) was anticoagulated by mixing it with 1.0 ml citrate solution in a S-Monovette. […] Platelet pellets were obtained from PRP by centifugation at 480 x g for 30 min at room temperature. The pellet was resuspended into Sodium-HEPES buffer, pH 6.5 at a final concentration of 3-4 x 10^8 cells/ml. […] Appropriate amounts of this solution were added to the platelets to yield a final concentration of SBFI/AM of 10 µM and platelets were incubated with the dye for 60 min at 37°C in a shaking water bath. Thereafter, platelets were again centrifuged at 480 x g for 30 min at RT. The supernatant was discarded and the platelets were taken up into sodium-HEPES buffer, pH 6.5 at a concentration of 3-4 x 10^9 cells/ml. The platelet suspension was then stored at RT until used for the fluorescence measurements.
Measurement of SBFI/AM Fluorescence: Aliquots of platelet suspension (4 µl) were added to 950 µl of the appropriate buffer. Fluorescence was measured in quartz cuvettes using a SLM-Aminco luminescence spectrometer before and after addition of the tested drugs. […] All measurements were performed without stirring at room temperature.

[1] = biological target: T1, human serotonin transporter (Homo sapiens, UniProt P31645); test: ^3H-serotonin uptake in platelets; format: cell-based
T1 construct: Blood from normal unmedicated volunteers was anticoagulated; endogenous in cells; host or cells: human platelets from blood of unmedicated volunteers
T1 sequence (P31645 whole entry): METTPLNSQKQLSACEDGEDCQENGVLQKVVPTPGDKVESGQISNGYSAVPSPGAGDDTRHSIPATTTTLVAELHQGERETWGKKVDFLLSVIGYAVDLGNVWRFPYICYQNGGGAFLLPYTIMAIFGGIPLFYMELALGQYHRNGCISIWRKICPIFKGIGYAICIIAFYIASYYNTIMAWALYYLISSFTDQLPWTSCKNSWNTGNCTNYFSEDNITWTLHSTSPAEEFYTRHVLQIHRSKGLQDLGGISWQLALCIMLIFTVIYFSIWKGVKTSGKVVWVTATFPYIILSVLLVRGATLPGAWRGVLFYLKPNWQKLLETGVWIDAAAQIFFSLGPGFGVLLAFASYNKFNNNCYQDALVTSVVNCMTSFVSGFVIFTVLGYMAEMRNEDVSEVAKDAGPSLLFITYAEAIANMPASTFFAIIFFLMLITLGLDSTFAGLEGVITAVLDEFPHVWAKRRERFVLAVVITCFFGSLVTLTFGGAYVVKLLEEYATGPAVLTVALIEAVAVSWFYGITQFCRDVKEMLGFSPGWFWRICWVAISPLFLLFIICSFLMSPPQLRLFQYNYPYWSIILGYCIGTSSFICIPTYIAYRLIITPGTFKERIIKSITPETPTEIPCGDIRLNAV

serotonin transporter [2] = biological target: T2, serotonin transporter (Mus musculus, UniProt Q60857); test: Kinetic analyses of ^3H-serotonin uptake into mouse cortex synaptosomes; format: cell-based; conditions: hyperforin 2 µM, citalopram 1 nM, monensin concentration not given in the text
T2 construct: Synaptosomal preparations from frontal cortex of female NMRI mice were used for serotonin uptake; from tissue; host or cells: frontal cortex of female NMRI mice (synaptosomes or membranes)
T2 sequence (Q60857 whole entry): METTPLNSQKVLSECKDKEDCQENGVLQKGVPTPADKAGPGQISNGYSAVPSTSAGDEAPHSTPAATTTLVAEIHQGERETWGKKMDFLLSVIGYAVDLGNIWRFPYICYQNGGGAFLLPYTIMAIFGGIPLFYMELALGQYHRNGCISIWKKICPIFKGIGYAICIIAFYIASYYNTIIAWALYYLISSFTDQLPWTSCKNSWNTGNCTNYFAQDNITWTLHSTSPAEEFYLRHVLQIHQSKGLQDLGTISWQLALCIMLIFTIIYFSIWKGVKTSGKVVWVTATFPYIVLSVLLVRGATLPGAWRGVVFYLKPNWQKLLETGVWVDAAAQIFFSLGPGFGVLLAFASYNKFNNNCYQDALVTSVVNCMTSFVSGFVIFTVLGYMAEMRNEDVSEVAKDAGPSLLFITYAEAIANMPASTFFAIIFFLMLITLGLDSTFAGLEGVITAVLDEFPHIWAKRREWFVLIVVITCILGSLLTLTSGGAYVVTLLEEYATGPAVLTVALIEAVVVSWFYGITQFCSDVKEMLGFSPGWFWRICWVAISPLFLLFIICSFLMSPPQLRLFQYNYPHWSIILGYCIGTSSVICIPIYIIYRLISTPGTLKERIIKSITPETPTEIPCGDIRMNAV

norepinephrine = test: Synaptosomal uptake of norepinephrine; format: cell-based; conditions: unpublished observations
dopamine = test: Synaptosomal uptake of dopamine; format: cell-based; conditions: unpublished observations
serotonin transporter [3] = biological target: T2, serotonin transporter; test: Synaptosomal uptake of ^3H-serotonin (mouse cortex synaptosomes); format: cell-based
Method: Synaptosomal preparations from frontal cortex of female NMRI mice were used for serotonin uptake. The tissue was homogenized in ice cold sucrose solution (0.32 M) and diluted with 10 ml of the homogenizing medium. The nuclear fraction was eliminated by centrifugation at 750 x g for 10 min (Beckman Centrifuge, Model J2-21). […] The probes were cooled, immediately filtered through Whatman GF/B glass fiber filters and washed three times with ice cold buffer solution with a Brandel cell harvester. Filters were placed in plastic scintillation vials containing 4 ml Lumasafe scintillation cocktail (Packard). Radioactivity was measured after 12 hours. Nonspecific uptake was determined in parallel probes maintained throughout on ice or containing unlabelled serotonin (1mM serotonin).

serotonin transporter [4] = biological target: T2, serotonin transporter; test: ^3H-paroxetine binding assay (mouse frontal cortex membranes)
Method: Female NMRI mice were sacrified by decapitation. […] The homogenate was centrifuged for 10 min at 35000 x g at 4°C. The resulting pellet was resuspended in 40 volumes of buffer and recentrifuged. The pellet was resuspended in TRIS buffer at a protein concentration of 70 µg/ml. Aliquots of membrane suspension were incubated with ^3H-paroxetine (0.2 nM) at room temperature for 60 minutes. Incubation was terminated by rapid filtration through Whatman GF/B glass fiber filters with a Brandel Cell Harvester. […] The filters were washed 7 times with ice cold buffer, dried and the radioactivity was measured by liquid scintillation spectrometry.

L-glutamate = test: Synaptosomal uptake of L-glutamate; format: cell-based; conditions: unpublished observations
GABA = test: Synaptosomal uptake of GABA; format: cell-based; conditions: unpublished observations

CC[C@@]1([C@@H]2O[C@@H]([C@H]3O[C@@](O)(CO)[C@H](C)C[C@@H]3C)C[C@@H]2C)CC[C@H]([C@]2(C)CC[C@]3(C[C@H](O)[C@@H](C)[C@@H]([C@@H](C)[C@@H](OC)[C@H](C)C(=O)O)O3)O2)O1 [Monensin]
[Na^+]i elevated from basal levels up to (human platelets): 140,0 ± 9,1 mM
incubation time to equilibration of [Na^+]i elevation (human platelets; monensin, human platelets): 15 min
IC50 ([1]; inhibition of ^3H-serotonin uptake into human platelets, Table 3): 159 nM
inhibition at 0.5 µM ([1]; monensin 500 nM, human platelets): ~70%
Vmax (serotonin transporter [2]): 0,065 ± 0,009 pM/min/mg protein
IC50 synaptosomal uptake of norepinephrine (norepinephrine): nanomolar range
IC50 synaptosomal uptake of dopamine (dopamine): nanomolar range
IC50 (serotonin transporter [3]): 47.8 nM
IC50 (serotonin transporter [4]): > 1000 nM
IC50 synaptosomal uptake of L-glutamate (L-glutamate): nanomolar range
IC50 synaptosomal uptake of GABA (GABA): nanomolar range

CC(C)=CCCC1(C)C(CC=C(C)C)CC2(CC=C(C)C)C(=O)C(CC=C(C)C)=C(O)C1(C(=O)C(C)C)C2=O (centres unmarked) [Hyperforin]
Maximal elevation of [Na^+]i (human platelets; 50 µM hyperforin, human platelets): about 70 mM
[Na^+]i elevated from basal levels up to (human platelets): 69,0 ± 16,1 mM
incubation time to maximal effect on [Na^+]i (human platelets; hyperforin, human platelets): ≤ 15 min
